Measured values taken from patent US7125858B2, “Hyaluronic acid in the treatment of cancer” (Bioniche Life Sciences Inc., priority 1999, dated 2006).

Legend:
[1] = system: MCF-7 human breast cancer cells; test: MTT cell proliferation, MCF-7; format: cell-based
Experimental: (§1) Cell proliferation was measured using dimethylthiazoldiphenyltetrazolium (MTT) reduction (Mosman et al. J. Immunol. Methods 65:55, 1983). Unless otherwise stated, 100 μl of 5 mg of MTT (Sigma-Aldrich, St. Louis, Mo., USA) dissolved in 1 ml of PBS was added into each well. After 4 h, medium was removed from each well, 1.0 ml of acid-isopropanol (0.04 N HCl in isopropanol) was added and reduced MTT was solubilized by mixing. Absorbency of the reaction product was measured at a wavelength of 570 nm using a multiplate spectrophotometer reader (Elx800 Model, Bio-TEK Instruments Inc., Winooski, Vt., USA).
(§2) Unless stated otherwise 1.0×10^5 cells/ml were seeded in 6-well flat-bottom tissue culture plates and were maintained for 48 h at 37° C. in a 5% CO2 atmosphere.
(§3) PC-3, LNCAP and Du-145 human prostate cancer cells; MCF-7 human breast cancer cells; HT-1080 human fibrosarcoma cancer cells; B16F1 murine melanoma cells; and, UMUC-3, RT-4, HT-1376 and T-24 human bladder cancer cells were incubated with 0.8, 8.0 and 80 μg/ml of 5.0–7.5×10^5 Da HA (Table 2).
(§4) Unless stated otherwise 2.0×10^4 cells/ml were seeded in 24-well plates and were maintained for 48 h at 37° C. in a 5% CO2 atmosphere. MTT was used at 50 μl per well.
(§5) T-24 human bladder cancer cells, PC-3 and Du-145 human prostate cancer cells, and MCF-7 human breast cancer cell were incubated with saline or with 80.0 μg/ml of 5.0–7.5×10^5 Da HA+1.0 μg/ml of M-DNA (Table 4).
MCF-7 human breast cancer cells (2.5×10^5 cells/ml) were incubated as in Example 6 with 0.0, 0.01 and 0.1 μg/ml of 5.0–7.5×10^5 Da HA+100 μg/ml of the synthetic 6 base oligonucleotide GG(GT)1GG (SEQ ID NO:1) or +100 μg/ml of the […] 27 base oligonucleotide (GT)13G (SEQ ID NO:2) (Table 6). MTT was used at 50 μl per well.
(§6) RT-4 human bladder cancer cells and MCF-7 human breast cancer cells were incubated as in Example 6 with 0.0, 0.008 or 0.08 μg/ml of 5.0–7.5×10^5 Da HA+0.1 μg/ml of CIS, +1.0 μg/ml of 5-FU or +10 μg/ml of 5-FU (Table 7).
(§7) CD44 expression and the inhibition of proliferation by 5.0–7.5×10^5 Da HA were measured using Jurkat T cell leukemia cells; MCF-7 human breast cancer cells; RT-4, T-24, HT-1376 and UMUC-3 human bladder cancer cells; and, PC-3, Du-145 and LNCaP prostate cancer cells (Table 8)

[2] = system: HT-1080 human fibrosarcoma cancer cells; test: MTT cell proliferation, HT-1080; format: cell-based; conditions: 1.0×10^5 cells/ml, 48 h
Experimental: as §1, §2, §3

[3] = system: Jurkat T cell leukemia cells; test: MTT cell proliferation, Jurkat T; format: cell-based; conditions: HA 80 μg/ml alone
Experimental: as §1, §7

[4] = system: IL-12; test: IL-12 production by PBMCs (ELISA); format: cell-based, human
Experimental: (§8) Peripheral blood mononuclear cells (hereinafter, “PBMCs”) were isolated from the blood of 5 healthy humans by Ficoll-Hypaque (Amersham Pharmacia Biotech, Baie d'Urfée, Québec, Canada) density gradient centrifugation of whole blood. Stimulation of IL-6 and IL-12 production by the immune system cells was determined using the appropriate commercial ELISA (BioSource, Camarillo, Calif., USA). Results are expressed as the “fold” (x) increases in cytokine production by treated cells compared to control cells. PBMCs were incubated with 1 mg/ml of 5.0–7.5×10^5 Da and production of IL-6 and IL-12 was determined (Table 9). PBMCs, isolated from the blood of individual #1, were incubated with 0.008, 0.04, 0.2 and 1 mg/ml of 5.0–7.5×10^5 Da (Table 10)

[5] = system: IL-6; test: IL-6 production by PBMCs (ELISA); format: cell-based, human
Experimental: as §8

[6] = system: T-24 human bladder cancer cells; test: MTT cell proliferation, T-24; format: cell-based; conditions: 48 h
Experimental: as §1, §2, §3, §4, §5
(§9) HT-1376, RT-4 and T-24 human bladder cancer cells were incubated with 0.8 μg/ml of 5.0–7.5×10^5 Da HA+1.0 μg/ml of MCC (Table 5).
as §7

[7] = system: B16F1 murine melanoma cells; test: MTT cell proliferation, B16F1; format: cell-based; conditions: 1.0×10^5 cells/ml, 48 h
Experimental: as §1, §2, §3

[8] = system: HT-1376 human bladder cancer cells; test: MTT cell proliferation, HT-1376; format: cell-based; conditions: 48 h
Experimental: as §1, §2, §3, §4, §9, §7

[9] = system: LNCaP human prostate cancer cells; test: MTT cell proliferation, LNCaP; format: cell-based; conditions: 1.0×10^5 cells/ml, 48 h
Experimental: as §1, §2, §3
(§10) PC-3. LNCaP and Du-145 human prostate cancer cells were incubated with 8.0 μg/ml of 5.0–7.5×10^5 Da HA or of <1.5×10^4 Da HA (Table 3).
as §7

[10] = system: UMUC-3 human bladder cancer cells; test: MTT cell proliferation, UMUC-3; format: cell-based; conditions: 1.0×10^5 cells/ml, 48 h
Experimental: as §1, §2, §3, §7

[11] = system: Du-145 human prostate cancer cells; test: MTT cell proliferation, Du-145; format: cell-based; conditions: 48 h
Experimental: as §1, §2, §3, §10, §4, §5, §7

[12] = system: PC-3 human prostate cancer cells; test: MTT cell proliferation, PC-3; format: cell-based; conditions: 48 h
Experimental: as §1, §2, §3, §10, §4, §5, §7

[13] = system: RT-4 human bladder cancer cells; test: MTT cell proliferation, RT-4; format: cell-based
Experimental: as §1, §2, §3, §4, §9, §6, §7

[14] = system: colon-26 cancer cells; conditions: HA alone; colon-26 cells express high levels of HA receptors (Freemantle et al. 1995); cited from earlier work
[15] = system: B16F10 murine melanoma tumor; conditions: HA 1 mg/ml over 7 days by Alzet osmotic pump into the immediate vicinity of the tumor; cited from earlier work
[16] = system: rectal, gastric, breast, prostate and endometrial cancers; conditions: HA >750 mg/kg administered with various other therapeutic agents over various periods of time (PCT/CA/00283); cited from earlier work
[17] = MCF-7 2.5×10^5 cells/ml, oligonucleotide 100 μg/ml alone (HA 0.0 μg/ml)
[18] = PBMCs of individual 1, HA 1 mg/ml
[19] = PBMCs of individual 2, HA 1 mg/ml
[20] = PBMCs of individual 3, HA 1 mg/ml
[21] = PBMCs of individual 4, HA 1 mg/ml
[22] = PBMCs of individual 5, HA 1 mg/ml
[23] = PBMCs of individual #1, HA 0.008 mg/ml
[24] = PBMCs of individual #1, HA 0.040 mg/ml
[25] = PBMCs of individual #1, HA 0.200 mg/ml
[26] = HA 0.8 μg/ml alone, 1.0×10^5 cells/ml
[27] = HA 8.0 μg/ml alone, 1.0×10^5 cells/ml
[28] = HA 80.0 μg/ml alone (+ saline), 2.0×10^4 cells/ml, 24-well
[29] = HA 80.0 μg/ml alone, 1.0×10^5 cells/ml
[30] = HA at 0.8 μg/ml alone (+ saline), 2.0×10^4 cells/ml, 24-well
[31] = HA 8.0 μg/ml alone, 1.0×10^5 cells/ml, listed as 0.5–7.5 × 10^5 Da HA

(GT)13G (DNA GTGTGTGTGTGTGTGTGTGTGTGTGTG; listed as DNA, chemistry not given here) [(G1T)13G, synthetic 27 base oligonucleotide]
% inhibition of cell proliferation [1, 17]: 44%

GG(GT)1GG
% inhibition of cell proliferation [1, 17]: 20%

Hyaluronic acid [5.0–7.5 × 10^5 Da HA]
% inhibition of cell proliferation ([2]; HA 0.8 μg/ml alone): 4% | % inhibition of cell proliferation ([2]; HA 8.0 μg/ml alone): 4% | % inhibition of cell proliferation ([2]; HA 80.0 μg/ml alone): 36% | % inhibition of proliferation [3]: 0% | IL-12 production, fold increase vs control cells [4, 18]: 25.2x | IL-12 production, fold increase vs control cells [4, 19]: 7.1x | IL-12 production, fold increase vs control cells [4, 20]: 26.5x | IL-12 production, fold increase vs control cells [4, 21]: 10.0x | IL-12 production, fold increase vs control cells [4, 22]: 8.5x | IL-12 production, fold increase vs control cells [4, 23]: 4.9x | IL-12 production, fold increase vs control cells [4, 24]: 13.8x | IL-12 production, fold increase vs control cells [4, 25]: 8.5x | IL-6 production, fold increase vs control cells [5, 18]: 3.8x | IL-6 production, fold increase vs control cells [5, 19]: 1.8x | IL-6 production, fold increase vs control cells [5, 20]: 4.1x | IL-6 production, fold increase vs control cells [5, 21]: 1.4x | IL-6 production, fold increase vs control cells [5, 22]: 6.3x | IL-6 production, fold increase vs control cells [5, 23]: 2.4x | IL-6 production, fold increase vs control cells [5, 24]: 3.5x | IL-6 production, fold increase vs control cells [5, 25]: 2.9x | % inhibition of cell proliferation [6, 26]: 10% | % inhibition of cell proliferation [6, 27]: 8% | % inhibition of cell proliferation [6, 28]: 0% | % inhibition of cell proliferation [6, 29]: 0% | % inhibition of cell proliferation [6, 30]: 8% | % inhibition of cell proliferation ([7]; HA 0.8 μg/ml alone): 20% | % inhibition of cell proliferation ([7]; HA 8.0 μg/ml alone): 20% | % inhibition of cell proliferation ([7]; HA 80.0 μg/ml alone): 30% | % inhibition of cell proliferation [8, 26]: 0% | % inhibition of cell proliferation [8, 27]: 3% | % inhibition of cell proliferation [8, 29]: 1% | % inhibition of cell proliferation [8, 30]: 3% | % inhibition of cell proliferation ([9]; HA 0.8 μg/ml alone): 7% | % inhibition of cell proliferation ([9]; HA 8.0 μg/ml alone, listed as 0.5–7.5 × 10^5 Da HA): 13% | % inhibition of cell proliferation ([10]; HA 0.8 μg/ml alone): 10% | % inhibition of cell proliferation ([10]; HA 8.0 μg/ml alone): 10% | % inhibition of cell proliferation ([10]; HA 80.0 μg/ml alone): 2% | % inhibition of cell proliferation ([1]; MCF-7 2.5×10^5 cells/ml, HA 0.01 μg/ml alone, no oligonucleotide): 6% | % inhibition of cell proliferation ([1]; MCF-7 2.5×10^5 cells/ml, HA 0.1 μg/ml alone, no oligonucleotide): 5% | % inhibition of cell proliferation ([1]; MCF-7, HA 0.008 μg/ml alone (+ saline), as in Example 6): 12% | % inhibition of cell proliferation ([1]; MCF-7, HA 0.08 μg/ml alone (+ saline), as in Example 6): 12% | % inhibition of cell proliferation ([1]; MCF-7, HA 0.8 μg/ml alone, 1.0×10^5 cells/ml, 48 h): 19% | % inhibition of cell proliferation ([1]; MCF-7, HA 8.0 μg/ml alone, 1.0×10^5 cells/ml, 48 h): 24% | % inhibition of cell proliferation ([1]; MCF-7, HA 80.0 μg/ml alone (+ saline), 2.0×10^4 cells/ml, 24-well, 48 h): 35% | % inhibition of cell proliferation ([1]; MCF-7, HA 80.0 μg/ml alone, 1.0×10^5 cells/ml, 48 h): 35% | % inhibition of cell proliferation [11, 26]: 6% | % inhibition of cell proliferation [11, 31]: 15% | % inhibition of cell proliferation [11, 28]: 38% | % inhibition of cell proliferation [11, 29]: 38% | % inhibition of cell proliferation [12, 26]: 15% | % inhibition of cell proliferation [12, 31]: 26% | % inhibition of cell proliferation [12, 28]: 30% | % inhibition of cell proliferation ([13]; HA 0.008 μg/ml alone (+ saline), as in Example 6): 0% | % inhibition of cell proliferation ([13]; HA 0.08 μg/ml alone (+ saline), as in Example 6): 0% | % inhibition of cell proliferation ([13]; HA 0.8 μg/ml alone, 1.0×10^5 cells/ml, 48 h): 12% | % inhibition of cell proliferation ([13]; HA 8.0 μg/ml alone, 1.0×10^5 cells/ml, 48 h): 13% | % inhibition of cell proliferation ([13]; HA 80.0 μg/ml alone, 1.0×10^5 cells/ml, 48 h): 5% | % inhibition of cell proliferation ([13]; HA at 0.8 μg/ml alone (+ saline), 2.0×10^4 cells/ml, 24-well, 48 h): 13%

Hyaluronic acid [<1.5 × 10^4 Da HA]
% inhibition of cell proliferation ([9]; HA 8.0 μg/ml alone): 24% | % inhibition of cell proliferation [11, 27]: 37% | % inhibition of cell proliferation [12, 27]: 5%

Hyaluronic acid [HA]
growth of cancer cells [14]: significantly inhibits | reduction of tumor volume [15]: > 85% | % inhibition of cell proliferation ([9]; HA 80.0 μg/ml alone): 26% | effect on cancers [16]: reduced or eliminated | % inhibition of cell proliferation [12, 29]: 30%
